One series deals with Lp-PLA2. Put plainly: Study DG-031-201 cross-over trial: Lp-PLA2. The class given is in vivo, human. The conditions noted are these: highest dose; [3%,16%], p=0.006. The protocol: (§1) Patients who met the study eligebility criteria were enrolled and randomized into 3 different dose-level groups: (1) 64 patients on 250 mg/day therapy with DG-031 (250 mg q.d.), vs placebo; (2) 64 patients on 500 mg/day therapy with DG-031 (250 mg b.i.d.) vs placebo; and (3) 63 patients on 750 mg/day therapy with DG-031 (250 mg t.i.d.) vs placebo. […] All patients received 3 tablets per day. Treatment periods, 4 weeks in duration each, were separated by a 2-week washout period. The placebo tablets were identical in shape, color, form and taste to the active tablets except that they contained no active drug ingredients. Treatment with DG-031 or placebo was in addition to the subject's standard care, including all medications and treatment plan as prescribed by the subject's cardiologist prior to enrolment. A total of 191 subjects were enrolled, with 172 completing all 8 visits or 8 patients short of the target of 180 patients. […]
(§2) All data were analyzed according to a pre-established statistical analysis plan (SAP) and by intention-to-treat (ITT). […] The difference between DG-031 and placebo treatment was the primary outcome, assessed separately for each of the biomarkers. […]

The test system of the next series is MPO. The series can be described thus: Study DG-031-201: MPO in plasma. The conditions noted are these: difference visit 2 to visit 5; 500 and 750 mg/day vs placebo cohort. In kind it is in vivo, human. The protocol:
as §1, §2

Another series has as its system MMP-9. The series can be described thus: Study DG-031-201: MMP 9. In kind it is in vivo, human. The conditions noted are these: difference visit 2 to visit 5; 500 and 750 mg/day vs placebo cohort. The protocol: (§3) Patients who met the study eligebility criteria were enrolled and randomized into 3 different dose-level groups: (1) 64 patients on 250 mg/day therapy with DG-031 (250 mg q.d.), vs placebo; (2) 64 patients on 500 mg/day therapy with DG-031 (250 mg b.i.d.) vs placebo; and (3) 63 patients on 750 mg/day therapy with DG-031 (250 mg t.i.d.) vs placebo. […] All patients received 3 tablets per day. Treatment periods, 4 weeks in duration each, were separated by a 2-week washout period. The placebo tablets were identical in shape, color, form and taste to the active tablets except that they contained no active drug ingredients. Treatment with DG-031 or placebo was in addition to the subject's standard care, including all medications and treatment plan as prescribed by the subject's cardiologist prior to enrolment. A total of 191 subjects were enrolled, with 172 completing all 8 visits or 8 patients short of the target of 180 patients.
All data were analyzed according to a pre-established statistical analysis plan (SAP) and by intention-to-treat (ITT). Each arm of the study, as well as pooled sets (combining dose levels), was considered for the primary analysis. […] The difference between DG-031 and placebo treatment was the primary outcome, assessed separately for each of the biomarkers. […]

The subject of a further series is LDL cholesterol. The series can be described thus: Study DG-031-201: LDL cholesterol. The conditions noted are these: highest dose; [4%,12%], p<0.001. In kind it is in vivo, human. The protocol:
as §3
12% for MPO ([2%,21%], p=0.02) at the 750 mg/day dose of DG-031. […] Urine levels of LTE4 increased by 27% in response to the highest dose of DG-031 ([15%,40%], p<0.001). Significant correlation was observed between the change of LTB4 and MPO production (r=0.62 [0.51,0.70], p<0.001) within a period, also when considering only those taking drug where the range of these changes were larger. Correlation was also observed for these variables at baseline. […]

Series [1] in a line: Clinical studies, safety and tolerability in CAD patients. In kind it is in vivo, human. As to the method: Previous clinical studies administered the dosages of DG-031 either in a single dose (QD) or twice a day (BID)
A total daily dose of 750 mg, dosed at 250 mg TID, provides a preferable PK/PD relationship (inhibition of LTB4) and efficacy in terms of lowering other biomarkers of MI risk (i.e. MPO and CRP).

For series [2] the following is noted: healthy volunteers, cited from earlier work.

Where two headings read alike, the source gives them in different places.

In the case of `O=C(O)[C@@H](c1ccc(OCc2ccc3ccccc3n2)cc1)C1CCCC1` [DG-031, (R)-(+)-alpha-cyclopentyl-4-(2-quinolinylmethoxy)-Benzeneacetic acid], in the series on Lp-PLA2, the “Increase of Lp-PLA2” value amounted to 9%. In addition, the “Carry-over effect, MPO in plasma” value with MPO is given as −0.11. Also, in the series on MMP-9, the “Carry-over effect, MMP 9” value is −0.04. Also, in the series on LDL cholesterol, the “Increase in LDL cholesterol” value turned out to be 8%. Also, the Safety and tolerability entry in series [1] (250 mg QD, 375 mg QD, 250 mg BID, 375 mg BID and 250 mg TID) is “safe and well tolerated”; in series [1] (total daily doses 375 mg and 750 mg, less than 8 days), “safe and well tolerated”; in series [1] (total daily doses 250, 500 and 750 mg, 128 days), “safe and well tolerated”; in series [2] (total daily dose 100, 200, 250, 300, 500, 750 and 1000 mg, less than 14 days), “safe and well tolerated”; in series [2] (total daily doses 500 mg and 1000 mg, 14-42 days) it was “safe and well tolerated”.

These data come from US20060257481A1, “Sustained release formulation and dosing schedule of leukotriene synthesis inhibitor for human therapy” (deCODE Genetics ehf., priority 2005, published 2006).
